Assay results from patent publication US20050080062A1, “Breast cancer treatment regimen” (priority 2003, published 2005).

System: primary breast cancer (hormone receptor positive or unknown)
Type: in vivo, postmenopausal women
Method: The study was a phase III randomized double-blind placebo-controlled study of letrozole in postmenopausal women with primary breast cancer completing five years of adjuvant tamoxifen. Patients were allocated to receive either letrozole 2.5 mg or placebo once daily by mouth for five years. Stratification factors at randomization were tumor receptor status (positive, unknown), lymph node status at diagnosis (negative, positive or unknown) and prior adjuvant chemotherapy (yes, no). The primary objective was disease-free survival (DFS). Secondary endpoints included overall survival (OS)(all cause mortality), contralateral breast cancer occurrence, quality of life and long term clinical and laboratory safety with special attention paid to cardiovascular morbidity and mortality and bone fractures. Adverse events were assessed by the NCI Common Toxicity Criteria version 2.0. Quality of life was assessed using the SF-36 and Menopause-Specific Quality of Life questionnaires. Companion studies assessed lipid profiles and changes in bone density.
Premenopausal women who were <50 years at the start of treatment with tamoxifen but who became amenorrheic during the course of adjuvant chemotherapy or during their treatment with tamoxifen and who remained so throughout the ensuing years of tamoxifen treatment and women with LH/FSH levels within post-menopausal limits were also eligible. Other eligibility included: histologically confirmed invasive breast cancer; tumor receptor positive or unknown (ER and/or PgR positive defined as a tumour receptor content of ≧10 fmol/mg protein, or receptor positive by ERICA or PgRICA); tamoxifen discontinued <3 months prior to enrolment; ECOG performance status 0,1 or 2 and a life expectancy of >5 years. […] Ineligibility included: concurrent use of investigational drugs; prior or concurrent malignancy other than skin cancer or carcinoma in situ of the cervix.
Concomitant medications prohibiting enrolment included: systemic hormone replacement therapy or SERMS (selective estrogen receptor modulators). Intermittent use of vaginal estrogens was permitted.
All study participants were randomised. Study medication began within 5 working days of randomisation. Clinical evaluation, routine blood work, toxicity evaluation and mammography (annually only) occurred six monthly in year one and annually thereafter. Serious toxicities and deaths were reported within 24 hours. Treatment was discontinued for: serious intercurrent illness, unacceptable toxicity, disease recurrence and patient request. SF-36 and Menqol questionnaires were completed by a subset of patients at each visit. Fasting lipid samples and bone mineral density evaluations occurred in sub-sets of participants on the bone and lipid companion studies. Recurrence of disease was defined histologically, cytologically or by clinical and/or radiologic suspicion and dated by the first time of detection. Management of recurrent cancer was at the discretion of the treating physician. Patients developing any second malignancy other than non-melanoma skin cancer or carcinoma in-situ of the cervix had to discontinue study therapy.
Interim analyses and other decisions regarding early termination of the study were referred to an independent Data and Safety Monitoring Committee (DSMC) consisting of clinicians, patient representatives and statisticians who reviewed the study twice a year.
Disease free survival, defined as the time from randomization to the time of recurrence of the primary disease (in the breast, chest wall, nodal or metastatic sites) or development of contralateral breast cancer, was the primary endpoint of the study. The sample size calculation assumed a 4 year disease free survival of 88% for patients on the placebo arm and a hazard ratio of 1.28, which represents 2.5% improvement in 4 year disease free survival from 88% to 90.5%. […]

[1] = among 207 events at first analysis

SMILES: N#Cc1ccc(C(c2ccc(C#N)cc2)n2cncn2)cc1 [letrozole]
- hazard ratio of patients on placebo versus those on letrozole for OS (95% confidence interval from 0.85 to 2.17, stratified two sided log-rank p 0.20): 1.36
- hazard ratio of placebo to letrozole for DFS (95% confidence interval from 1.33 to 2.34, stratified two sided log-rank p 0.000077): 1.76
- effect on breast cancer recurrence and new primary tumors (in words) (after five years of treatment with tamoxifen): markedly reduced breast cancer recurrance and new primary tumors
- women who developed both contralateral breast cancer and metastatic disease [1]: 2 women
- women who developed contralateral breast cancer only [1]: 14 women
- women with metastatic disease recurrence only [1]: 59 women
- patients coming off study because of progressive disease (at the time of the first analysis): 44 patients
- patients coming off study because of toxicity (female, human, in vivo): 115 patients
- toxicity profile (in words) (in vivo): very favorable toxicity profile
- 4 year disease free survival (DFS) (letrozole 2.5 mg once daily by mouth after five years of adjuvant tamoxifen, first interim analysis, 95% confidence interval from 90% to 95%): 93%
- 4 year overall survival (OS) (letrozole 2.5 mg once daily, first interim analysis, 95% confidence interval from 94% to 98%): 96%
- patients who had died at the time of data cut-off (of 72 deaths in total, 2593 randomized to letrozole): 30 patients
